# Assay results from the METLIN SMRT retention time set (Domingo-Almenara et al. 2019).
# Assay: gradient 5% acetonitrile 3 min, to 50% in 2 min, to 85% in 15 min, held 3 min, 100 µL/min
# Conditions: column: Zorbax Extend-C18 2.1 x 50 mm; eluents: water / acetonitrile, 0.1% formic acid
# How it was run: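 Pure standards were analyzed in mixtures of ~100 molecules using HPLC coupled to a quadrupole time-of-flight mass spectrometer, in both positive and negative ionization mode. Separation used a Zorbax Extend-C18 column (2.1 × 50 mm, 1.8 μm) at 100 μL/min, with water and acetonitrile each containing 0.1% formic acid. Dead and dwell volumes were 40 μL and 900 μL, and data were collected over 3 months. Retention time was read from computationally picked adduct peaks, each inspected manually.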
row,Compound,RP-LC retention time [s]
1,Cc1cc(C)cc(NC(=O)C2CCN(S(=O)(=O)c3cc(C(=O)N4CCOCC4)cs3)CC2)c1,760
2,COc1ccc2c(c1)C1(CCN(C(=O)Cc3ccccc3C)C1)C(=O)N2C (stereo not given),826
3,COc1ccc(N2C(=O)CN(C(C)c3ccccc3)[C@H]3CS(=O)(=O)C[C@H]32)cc1 (stereo not given in full),808
4,Cc1nc2ccc(Cl)cn2c(=O)c1NC(=O)Cc1ccc(-c2ccccc2)cc1,775
5,CCN1C(=O)C2(CCN(S(=O)(=O)c3ccc(F)c(C)c3)CC2)c2ccccc21,1090
6,Cc1[nH]nc(-c2c(C)sc(C)c2S(=O)(=O)Nc2cccc(Cl)c2)c1C,1100
7,O=S(=O)(c1cc(-c2noc(C3CCCC3)n2)cs1)N1CCC2(CC1)OCCO2,1140
8,CC(C)c1ccc(-c2nc(-c3ccc4c(c3)oc(=O)n4C)no2)cc1,1250
9,COc1ccc(C(=O)N2CCCn3nc(-c4cccs4)cc3C2)cn1,766
10,O=C([C@@H]1C[C@H](F)CN1C(=O)Nc1ccc(F)cc1)N1CCCCC1,690
11,CNC(=O)Nc1ccc(C2(C(=O)Nc3ccc4c(c3)CCC4)CCC2)cc1,844
12,O=C(NCCCN1CCOCC1)C1CCN(c2nc3cccnc3s2)CC1,568
13,O=C(c1ccccc1F)N1CCN(c2nc(-c3ccc(Cl)cc3)no2)CC1,1040
14,Cc1nn(-c2nc(-c3ccccc3)cs2)c(C)c1CC(=O)Nc1ccccc1,1130
15,CN(C)c1ccc2c(c1)CN(C(=O)c1ccoc1)CCO2,573
16,CCOC(=O)Cc1ccc(NC(=O)NC2CCN(c3ccc(C)cc3)C2=O)cc1 (stereo not given),784
17,CCc1ccc(-c2cc(C(=O)N3CCN(c4cc(=O)n(C(C)C)c(=O)n4C(C)C)CC3)[nH]n2)cc1,946
18,Cc1ccn2cc(-c3ccc(C)c(NS(=O)(=O)c4ccc(C)c(C)c4)c3)nc2c1,729
19,CN1c2cc(F)ccc2C(=O)NC12CCN(C(=O)NCCc1ccccc1)CC2,761
20,CCOc1ccccc1NC(=O)N(C)CCc1noc(COc2ccccc2)n1,977

# Now from value to compound:
row,RP-LC retention time [s],Compound
1,849,COc1ccc(NC(=O)c2cnc3c(c2)c(=O)n(C)c(=O)n3-c2ccc(C)cc2)cc1F
2,610,CN(C)c1ccc2c(c1)CN(C(=O)C1CC=CC1)CCO2
3,1180,O=C1c2ccccc2C(=O)c2c(NCCc3ccc(O)cc3)ccc(NCCc3ccc(O)cc3)c21
4,691,CSc1cccc(NC(=O)CCc2c(-c3ccccc3)nc3ccccn23)c1
5,609,O=C(Cn1cnc2nc(N3CCC(C(=O)NC4CC4)CC3)sc2c1=O)NC1CCCC1
6,676,O=C(CCC1CCCN(c2cc(NC3CC3)ncn2)C1)NCc1ccc(F)cc1 (stereo not given)
7,729,CCOc1ccc(Nc2c(-c3ccc(C(=O)O)cc3)nc3cnccn23)cc1
8,691,CS(=O)(=O)N1CCCCC1c1nncn1Cc1ccccc1 (stereo not given)
9,859,CC1CC(=O)N(CC(=O)Nc2ccc3c(c2)OCCO3)c2ccccc2S1 (stereo not given)
10,756,COCCCNC(=O)CN1c2ccc(F)cc2-c2ccccc2S1(=O)=O
11,676,CN(C)CCn1nnc2cc(-c3noc(-c4cccc(F)c4)n3)ccc21
12,1060,Cc1ccc(C)c(N2CCN(c3ccnc(SCC(=O)NCCCc4ccccc4)n3)CC2)c1
13,811,CC(C)c1ccc(CNC(=O)Cc2nnc(-c3ccc4ncccc4c3)o2)cc1
14,912,O=C(NCc1csc(-c2ccccc2)n1)C1CCN(S(=O)(=O)c2cccc(F)c2)CC1
15,702,CCC(=O)NCc1cnn(-c2ccc(C(=O)Nc3ccc4c(c3)OCCO4)cc2)c1
